Source: the supplement of paper PMC10883282

Legend:
Assay in all cases: relative viability vs DMSO control (72 h) (fraction); higher = more viable cells
A204 = test system: A204
Method in brief: (§1)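 Relative viability was measured with ATPLite and expressed as percent growth, averaged across up to triplicate wells. Sarcoma cell lines had been seeded in 384-well plates to reach 80–90% confluence, dosed after 24 h, and incubated 72 h at 37 °C, 5% CO2. All data were rescaled on a scale where 1 is full and 0 is none.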

G401 = test system: G401
Method in brief: as §1

HS729 = test system: HS729
Method in brief: as §1

KHOS-240S = test system: KHOS-240S
Method in brief: as §1

MES-SA = test system: MES-SA
Method in brief: as §1

SK-ES-1 = test system: SK-ES-1
Method in brief: as §1

SK-LMS-1 = test system: SK-LMS-1
Method in brief: as §1

SW1353 = test system: SW1353
Method in brief: as §1

SW684 = test system: SW684
Method in brief: as §1

SW872 = test system: SW872
Method in brief: as §1

SW982 = test system: SW982
Method in brief: as §1

SYO-1 = test system: SYO-1
Method in brief: as §1

O=C1CCc2c(Oc3ccc4c(c3)[C@@H]3[C@H](O4)[C@H]3c3nc4cc(C(F)(F)F)ccc4[nH]3)ccnc2N1 [Lifirafenib]
Settings	relative viability
A204, 0.00017 µM	1.1
A204, 0.00051 µM	1.12
A204, 0.00152 µM	1.12
A204, 0.00457 µM	1.104
A204, 0.01372 µM	1.1
A204, 0.04115 µM	1.11
A204, 0.1235 µM	1.1
A204, 0.3704 µM	0.781
A204, 1.111 µM	0.49
A204, 3.333 µM	0.38
A204, 10 µM	0.317
G401, 0.00017 µM	1.02
G401, 0.00051 µM	1.03
G401, 0.00152 µM	1.03
G401, 0.00457 µM	1.02
G401, 0.01372 µM	1.02
G401, 0.04115 µM	1.03
G401, 0.1235 µM	1.035
G401, 0.3704 µM	1.01
G401, 1.111 µM	0.957
G401, 3.333 µM	0.787
G401, 10 µM	0.625
HS729, 0.00017 µM	0.947
HS729, 0.00051 µM	0.921
HS729, 0.00152 µM	0.926
HS729, 0.00457 µM	0.937
HS729, 0.01372 µM	0.886
HS729, 0.04115 µM	0.907
HS729, 0.1235 µM	0.871
HS729, 0.3704 µM	0.852
HS729, 1.111 µM	0.8769
HS729, 3.333 µM	0.851
HS729, 10 µM	0.817
KHOS-240S, 0.00017 µM	1.068
KHOS-240S, 0.00051 µM	1.07
KHOS-240S, 0.00152 µM	1.06
KHOS-240S, 0.00457 µM	1.08
KHOS-240S, 0.01372 µM	1.06
KHOS-240S, 0.04115 µM	1.06
KHOS-240S, 0.1235 µM	1.06
KHOS-240S, 0.3704 µM	1.03
KHOS-240S, 1.111 µM	0.967
KHOS-240S, 3.333 µM	0.792
KHOS-240S, 10 µM	0.547
MES-SA, 0.00017 µM	0.948
MES-SA, 0.00051 µM	0.952
MES-SA, 0.00152 µM	0.954
MES-SA, 0.00457 µM	0.955
MES-SA, 0.01372 µM	0.961
MES-SA, 0.04115 µM	0.974
MES-SA, 0.1235 µM	0.985
MES-SA, 0.3704 µM	0.992
MES-SA, 1.111 µM	0.956
MES-SA, 3.333 µM	0.792
MES-SA, 10 µM	0.493
SK-ES-1, 0.00017 µM	1.01
SK-ES-1, 0.00051 µM	1.04
SK-ES-1, 0.00152 µM	1.068
SK-ES-1, 0.00457 µM	1.05
SK-ES-1, 0.01372 µM	1.09
SK-ES-1, 0.04115 µM	1.07
SK-ES-1, 0.1235 µM	1.06
SK-ES-1, 0.3704 µM	1.08
SK-ES-1, 1.111 µM	1.04
SK-ES-1, 3.333 µM	0.867
SK-ES-1, 10 µM	0.572
SK-LMS-1, 0.00017 µM	1.04
SK-LMS-1, 0.00051 µM	1.06
SK-LMS-1, 0.00152 µM	1.09
SK-LMS-1, 0.00457 µM	1.08
SK-LMS-1, 0.01372 µM	1.1
SK-LMS-1, 0.04115 µM	1.11
SK-LMS-1, 0.1235 µM	1.14
SK-LMS-1, 0.3704 µM	1.1
SK-LMS-1, 1.111 µM	0.876
SK-LMS-1, 3.333 µM	0.6129
SK-LMS-1, 10 µM	0.438
SW684, 0.00017 µM	1.17
SW684, 0.00051 µM	1.2
SW684, 0.00152 µM	1.18
SW684, 0.00457 µM	1.16
SW684, 0.01372 µM	1.15
SW684, 0.04115 µM	1.15
SW684, 0.1235 µM	1.154
SW684, 0.3704 µM	1.22
SW684, 1.111 µM	1.32
SW684, 3.333 µM	1.3
SW684, 10 µM	0.936
SW872, 0.00017 µM	0.974
SW872, 0.00051 µM	0.998
SW872, 0.00152 µM	1.01
SW872, 0.00457 µM	1.03
SW872, 0.01372 µM	1.03
SW872, 0.04115 µM	0.98
SW872, 0.1235 µM	0.941
SW872, 0.3704 µM	0.735
SW872, 1.111 µM	0.644
SW872, 3.333 µM	0.644
SW872, 10 µM	0.59
SW982, 0.00017 µM	1.04
SW982, 0.00051 µM	1.03
SW982, 0.00152 µM	1.055
SW982, 0.00457 µM	1.05
SW982, 0.01372 µM	1.02
SW982, 0.04115 µM	1.02
SW982, 0.1235 µM	1.05
SW982, 0.3704 µM	1.03
SW982, 1.111 µM	0.897
SW982, 3.333 µM	0.757
SW982, 10 µM	0.556
SW1353, 0.00017 µM	0.989
SW1353, 0.00051 µM	0.95
SW1353, 0.00152 µM	0.989
SW1353, 0.00457 µM	1.01
SW1353, 0.01372 µM	1.06
SW1353, 0.04115 µM	1.06
SW1353, 0.1235 µM	1.06
SW1353, 0.3704 µM	1.08
SW1353, 1.111 µM	1.03
SW1353, 3.333 µM	0.861
SW1353, 10 µM	0.545
SYO-1, 0.00017 µM	0.947
SYO-1, 0.00051 µM	0.941
SYO-1, 0.00152 µM	0.9369
SYO-1, 0.00457 µM	0.947
SYO-1, 0.01372 µM	0.937
SYO-1, 0.04115 µM	0.91
SYO-1, 0.1235 µM	0.905
SYO-1, 0.3704 µM	0.823
SYO-1, 1.111 µM	0.666
SYO-1, 3.333 µM	0.555
SYO-1, 10 µM	0.437

CNC(=O)c1cccc2cc(Oc3ccnc4cc(OCC5(N)CC5)c(OC)cc34)ccc12 [Lucitanib]
Settings	relative viability
A204, 0.00017 µM	1.04
A204, 0.00051 µM	1.07
A204, 0.00152 µM	1.04
A204, 0.00457 µM	1.01
A204, 0.01372 µM	0.859
A204, 0.04115 µM	0.584
A204, 0.1235 µM	0.421
A204, 0.3704 µM	0.391
A204, 1.111 µM	0.265
A204, 3.333 µM	0.172
A204, 10 µM	0.153
G401, 0.00017 µM	1.07
G401, 0.00051 µM	1.04
G401, 0.00152 µM	1.02
G401, 0.00457 µM	0.989
G401, 0.01372 µM	1
G401, 0.04115 µM	1.01
G401, 0.1235 µM	0.964
G401, 0.3704 µM	0.888
G401, 1.111 µM	0.641
G401, 3.333 µM	0.451
G401, 10 µM	0.349
HS729, 0.00017 µM	1.08
HS729, 0.00051 µM	1.07
HS729, 0.00152 µM	1.07
HS729, 0.00457 µM	1.04
HS729, 0.01372 µM	1.01
HS729, 0.04115 µM	0.983
HS729, 0.1235 µM	0.915
HS729, 0.3704 µM	0.866
HS729, 1.111 µM	0.692
HS729, 3.333 µM	0.618
HS729, 10 µM	0.568
KHOS-240S, 0.00017 µM	1.1
KHOS-240S, 0.00051 µM	1.05
KHOS-240S, 0.00152 µM	1.1
KHOS-240S, 0.00457 µM	1.06
KHOS-240S, 0.01372 µM	1.07
KHOS-240S, 0.04115 µM	1.05
KHOS-240S, 0.1235 µM	1.02
KHOS-240S, 0.3704 µM	0.946
KHOS-240S, 1.111 µM	0.817
KHOS-240S, 3.333 µM	0.771
KHOS-240S, 10 µM	0.632
MES-SA, 0.00017 µM	0.983
MES-SA, 0.00051 µM	0.976
MES-SA, 0.00152 µM	0.965
MES-SA, 0.00457 µM	0.957
MES-SA, 0.01372 µM	0.978
MES-SA, 0.04115 µM	0.955
MES-SA, 0.1235 µM	0.95
MES-SA, 0.3704 µM	0.961
MES-SA, 1.111 µM	0.813
MES-SA, 3.333 µM	0.615
MES-SA, 10 µM	0.265
SK-ES-1, 0.00017 µM	1.07
SK-ES-1, 0.00051 µM	1.12
SK-ES-1, 0.00152 µM	1.09
SK-ES-1, 0.00457 µM	1.11
SK-ES-1, 0.01372 µM	1.01
SK-ES-1, 0.04115 µM	1.07
SK-ES-1, 0.1235 µM	1
SK-ES-1, 0.3704 µM	1.07
SK-ES-1, 1.111 µM	1.01
SK-ES-1, 3.333 µM	0.865
SK-ES-1, 10 µM	0.531
SK-LMS-1, 0.00017 µM	1.071
SK-LMS-1, 0.00051 µM	1.09
SK-LMS-1, 0.00152 µM	1.056
SK-LMS-1, 0.00457 µM	1.08
SK-LMS-1, 0.01372 µM	1.04
SK-LMS-1, 0.04115 µM	1.03
SK-LMS-1, 0.1235 µM	0.988
SK-LMS-1, 0.3704 µM	0.999
SK-LMS-1, 1.111 µM	0.958
SK-LMS-1, 3.333 µM	0.8754
SK-LMS-1, 10 µM	0.758
SW684, 0.00017 µM	1.14
SW684, 0.00051 µM	1.23
SW684, 0.00152 µM	1.26
SW684, 0.00457 µM	1.23
SW684, 0.01372 µM	1.21
SW684, 0.04115 µM	1.21
SW684, 0.1235 µM	1.15
SW684, 0.3704 µM	1.18
SW684, 1.111 µM	1.19
SW684, 3.333 µM	1.12
SW684, 10 µM	1.11
SW872, 0.00017 µM	1.07
SW872, 0.00051 µM	1.08
SW872, 0.00152 µM	1.056
SW872, 0.00457 µM	1.07
SW872, 0.01372 µM	1.07
SW872, 0.04115 µM	1.059
SW872, 0.1235 µM	1.038
SW872, 0.3704 µM	1.057
SW872, 1.111 µM	1.07
SW872, 3.333 µM	1.04
SW872, 10 µM	0.961
SW982, 0.00017 µM	1.03
SW982, 0.00051 µM	1.06
SW982, 0.00152 µM	1.06
SW982, 0.00457 µM	1.049
SW982, 0.01372 µM	1.03
SW982, 0.04115 µM	1.05
SW982, 0.1235 µM	1.03
SW982, 0.3704 µM	1.04
SW982, 1.111 µM	1.03
SW982, 3.333 µM	0.972
SW982, 10 µM	0.608
SW1353, 0.00017 µM	1.11
SW1353, 0.00051 µM	1.06
SW1353, 0.00152 µM	1.04
SW1353, 0.00457 µM	1.067
SW1353, 0.01372 µM	1.03
SW1353, 0.04115 µM	0.967
SW1353, 0.1235 µM	0.938
SW1353, 0.3704 µM	0.909
SW1353, 1.111 µM	0.8515
SW1353, 3.333 µM	0.862
SW1353, 10 µM	0.874
SYO-1, 0.00017 µM	1.03
SYO-1, 0.00051 µM	1.04
SYO-1, 0.00152 µM	1.01
SYO-1, 0.00457 µM	0.984
SYO-1, 0.01372 µM	0.919
SYO-1, 0.04115 µM	0.825
SYO-1, 0.1235 µM	0.688
SYO-1, 0.3704 µM	0.561
SYO-1, 1.111 µM	0.504
SYO-1, 3.333 µM	0.49
SYO-1, 10 µM	0.385
